Inhibition data for nine molecules are collected here from patent US20250034212A1, “PEPTIDE” (PEPTIDREAM INC., priority 2021, published 2025).

Starred links: 1 amine or outer side, 2 acyl side, 3 side chain; linkers in the order of their positions; H or OH if unused. Positions of bridges follow the written chain, without caps; N, C: chain ends. Non-standard residues stand in square brackets, D forms with d. Residues, ends and D or L forms follow the SMILES beside them. Groups on a side chain read outwards from the residue. *: point of attachment. Meglumine = CN(C[C@H](O)[C@@H](O)[C@H](O)[C@H](O)CO)*; Trp(6-aza) = N[C@@H](Cc1c[nH]c2cnccc12)C(=O)O; Trp(7-aza) = N[C@@H](Cc1c[nH]c2ncccc12)C(=O)O; Piperazinyl(4-CH2COOH) = O=C(O)CN1CCN(*)CC1; 1Nal = N[C@@H](Cc1cccc2ccccc12)C(=O)O; Gly(NCH2CH2Ph) = O=C(O)CNCCc1ccccc1; 4Pal = N[C@@H](Cc1ccncc1)C(=O)O; CO = O=C([*:1])[*:2]

This assay concerns the target T1, recombinant human TGF-β1 (Homo sapiens, UniProt P01137).
T1 construct: purchased R&D systems
In words: SBE reporter assay in SBE reporter-HEK293 cells, TGF-β1 stimulation. Type of assay: cell-based. The note with it: TGF-β1 0.13 nM, 18 hours; for inhibition at 75 pM: peptide 0.075 nM; for inhibition at 0.00075 µM: peptide 0.75 nM; for inhibition at 0.0075 µM: peptide 7.5 nM; for inhibition at 0.075 µM: peptide 75.0 nM. An excerpt:
The inhibitory activity of the peptide can be calculated without limitation while the maximum signal induced by TGF-β is set to 0% inhibition and no stimulation is set to 100% inhibition. When the peptide is used at an appropriate concentration, for example, at the optimal concentration, the inhibitory activity is not limited but the inhibition is 5% or more, 10% or more, 20% or more, 30% or more, 40% or more, 50% or more, 60% or more, 70% or more, 80% or more, or 90% or more.
In this Example, the TGF-β1 inhibitory activity of the peptide of the present invention consisting of the amino acid sequence set forth in SEQ ID NOs: 2-33 synthesized in Examples 1 to 5 and 7 was evaluated by an SBE reporter assay using the SBE reporter-HEK293 cell system (BP Bioscience) as follows.
SBE reporter-HEK293 cells were cultured in E-MEM (Wako) containing 10% FBS (Sigma). The cells were detached using Accutase (Innovative Cell Technologies), suspended in E-MEM containing 0.5% FBS, seeded onto a 96-well plate(s) at a concentration of 45,000 cells per well, and cultured overnight. The next day, the peptide was added and allowed to stand for 20 min, and recombinant human TGF-β1 (R&D systems) or recombinant human TGF-β2 (R&D systems) was then added at 0.13 nM and cultured for 18 hours.
Thereafter, luciferase assay ONE-Glo reagent was added to each well and the plate was shaken for 5 min. A SpectraMax Paradigm multimode microplate reader (Molecular Devices) was then used for signal detection. The obtained signals were analyzed by GraphPad Prism. The inhibitory activity of the peptide was calculated while the maximum signal induced by TGF-β was set to 0% inhibition and no stimulation was set to 100% inhibition.

T1 sequence (P01137 279-390 limits assumed): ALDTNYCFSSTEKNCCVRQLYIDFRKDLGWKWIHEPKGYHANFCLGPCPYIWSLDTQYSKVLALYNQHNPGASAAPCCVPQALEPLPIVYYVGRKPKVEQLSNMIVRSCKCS

On to `CC(C)[C@@H]1NC(=O)CN(CCc2ccccc2)C(=O)[C@H](CC(=O)O)NC(=O)[C@H](CC(=O)O)NC(=O)[C@H](Cc2ccncc2)NC(=O)[C@H](C(C)C)NC(=O)[C@H](CC(N)=O)NC(=O)[C@H](C(C)C)NC(=O)[C@H](C(C)C)NC(=O)[C@H](Cc2cccc3ccccc23)NC(=O)[C@H](Cc2ccccc2)NC(=O)CSC[C@@H](C(=O)NCC(N)=O)NC(=O)[C@H](C(C)C)NC(=O)[C@H](Cc2c[nH]cn2)NC(=O)[C@H](Cc2ccncc2)NC(=O)[C@H](Cc2cccc3ccccc23)NC1=O` [TGFb1_009] ({CH2CO}-F[1Nal]VVNV[4Pal]DD[Gly(NCH2CH2Ph)]V[1Nal][4Pal]HVCG-NH2; thioether N-16), for which the inhibition at 75 pM was 2.7%, the inhibition at 0.00075 µM was 53%, the inhibition at 0.0075 µM is 94.8% and the inhibition at 0.075 µM is 99.6%.

As for `CC(C)[C@@H]1NC(=O)CN(CCc2ccccc2)C(=O)[C@H](CC(=O)O)NC(=O)[C@H](CC(=O)O)NC(=O)[C@H](Cc2ccncc2)NC(=O)[C@H](C(C)C)NC(=O)[C@H](CC(N)=O)NC(=O)[C@H](CCCCN)NC(=O)[C@H](C(C)C)NC(=O)[C@H](Cc2cccc3ccccc23)NC(=O)[C@H](Cc2ccccc2)NC(=O)CSC[C@@H](C(=O)NCC(N)=O)NC(=O)[C@H](C(C)C)NC(=O)[C@H](Cc2c[nH]cn2)NC(=O)[C@H](Cc2ccc(O)cc2)NC(=O)[C@H](Cc2cccc3ccccc23)NC1=O` [TGFb1_007] ({CH2CO}-F[1Nal]VKNV[4Pal]DD[Gly(NCH2CH2Ph)]V[1Nal]YHVCG-NH2; thioether N-16), the inhibition at 75 pM was 0.1%, the inhibition at 0.00075 µM is 37.5%, the inhibition at 0.0075 µM amounted to 83.5% and the inhibition at 0.075 µM came to 96.7%.

`CC(C)[C@@H]1NC(=O)CN(CCc2ccccc2)C(=O)[C@H](CCCCNC(=O)N(C)C[C@H](O)[C@@H](O)[C@H](O)[C@H](O)CO)NC(=O)[C@H](CC(=O)O)NC(=O)[C@H](Cc2ccncc2)NC(=O)[C@H](C(C)C)NC(=O)[C@H](CC(N)=O)NC(=O)[C@H](C(C)C)NC(=O)[C@H](C(C)C)NC(=O)[C@H](Cc2cccc3ccccc23)NC(=O)[C@H](Cc2ccccc2)NC(=O)CSC[C@@H](C(=O)NCC(N)=O)NC(=O)[C@H](C(C)C)NC(=O)[C@H](Cc2c[nH]cn2)NC(=O)[C@H](Cc2ccc(O)cc2)NC(=O)[C@H](Cc2cccc3ccccc23)NC1=O` [TGFb1_015] ({CH2CO}-F[1Nal]VVNV[4Pal]DK([CO-Meglumine])[Gly(NCH2CH2Ph)]V[1Nal]YHVCG-NH2; thioether N-16): the inhibition at 75 pM stood at 0%, the inhibition at 0.00075 µM stood at 76.9%, the inhibition at 0.0075 µM is 98.7% and the inhibition at 0.075 µM was 98.4%.

Consider `CC(C)[C@@H]1NC(=O)CN(CCc2ccccc2)C(=O)[C@H](CCCCNC(=O)N(C)C[C@H](O)[C@@H](O)[C@H](O)[C@H](O)CO)NC(=O)[C@H](CC(=O)O)NC(=O)[C@H](Cc2ccncc2)NC(=O)[C@H](C(C)C)NC(=O)[C@H](CC(N)=O)NC(=O)[C@H](C(C)C)NC(=O)[C@H](C(C)C)NC(=O)[C@H](Cc2c[nH]c3ncccc23)NC(=O)[C@H](Cc2ccccc2)NC(=O)CSC[C@@H](C(=O)NCC(N)=O)NC(=O)[C@H](C(C)C)NC(=O)[C@H](Cc2c[nH]cn2)NC(=O)[C@H](Cc2ccc(O)cc2)NC(=O)[C@H](Cc2cccc3ccccc23)NC1=O` [TGFb1_018] ({CH2CO}-F[Trp(7-aza)]VVNV[4Pal]DK([CO-Meglumine])[Gly(NCH2CH2Ph)]V[1Nal]YHVCG-NH2; thioether N-16), for which the inhibition at 75 pM stood at 22.2%, the inhibition at 0.00075 µM stood at 61%, the inhibition at 0.0075 µM was determined as 97.6% and the inhibition at 0.075 µM is 99.9%.

In the case of `CC(C)[C@@H]1NC(=O)CN(CCc2ccccc2)C(=O)[C@H](CC(=O)O)NC(=O)[C@H](CC(=O)O)NC(=O)[C@H](Cc2ccncc2)NC(=O)[C@H](C(C)C)NC(=O)[C@H](CC(N)=O)NC(=O)[C@H](C(C)C)NC(=O)[C@H](C(C)C)NC(=O)[C@H](Cc2cccc3ccccc23)NC(=O)[C@H](Cc2ccccc2)NC(=O)CSC[C@@H](C(=O)NCC(N)=O)NC(=O)[C@H](CCC(=O)O)NC(=O)[C@H](Cc2c[nH]cn2)NC(=O)[C@H](Cc2ccc(O)cc2)NC(=O)[C@H](Cc2cccc3ccccc23)NC1=O` [TGFb1_027] ({CH2CO}-F[1Nal]VVNV[4Pal]DD[Gly(NCH2CH2Ph)]V[1Nal]YHECG-NH2; thioether N-16), the inhibition at 62 pM (peptide 0.062 nM) came out at 2.53%. Further, the inhibition at 0.000185 µM (peptide 0.185 nM) was 9.14%. For the same molecule, the inhibition at 0.00056 µM (peptide 0.56 nM) was found to be 28.4%. Also, under “peptide 1.7 nM”, the inhibition at 0.0017 µM is 59.4%. The inhibition at 0.005 µM (peptide 5.0 nM) was found to be 84.9%. Further, the inhibition at 0.015 µM (peptide 15.0 nM) was 95.5%.

On to `CC(C)[C@@H]1NC(=O)CN(CCc2ccccc2)C(=O)[C@H](CCCCNC(=O)N2CCN(CC(=O)O)CC2)NC(=O)[C@H](CC(=O)O)NC(=O)[C@H](Cc2ccncc2)NC(=O)[C@H](C(C)C)NC(=O)[C@H](CC(N)=O)NC(=O)[C@H](C(C)C)NC(=O)[C@H](C(C)C)NC(=O)[C@H](Cc2cccc3ccccc23)NC(=O)[C@H](Cc2ccccc2)NC(=O)CSC[C@@H](C(=O)NCC(N)=O)NC(=O)[C@H](C(C)C)NC(=O)[C@H](Cc2c[nH]cn2)NC(=O)[C@H](Cc2ccc(O)cc2)NC(=O)[C@H](Cc2cccc3ccccc23)NC1=O` [TGFb1_011] ({CH2CO}-F[1Nal]VVNV[4Pal]DK([CO-Piperazinyl(4-CH2COOH)])[Gly(NCH2CH2Ph)]V[1Nal]YHVCG-NH2; thioether N-16), for which the inhibition at 75 pM was determined as 6.1%, the inhibition at 0.00075 µM is 76.3%, the inhibition at 0.0075 µM stood at 97.9% and the inhibition at 0.075 µM came to 100%.

Turning to `CC(C)[C@@H]1NC(=O)CN(CCc2ccccc2)C(=O)[C@H](CC(=O)O)NC(=O)[C@H](CC(=O)O)NC(=O)[C@H](Cc2ccc(O)cc2)NC(=O)[C@H](C(C)C)NC(=O)[C@H](CC(N)=O)NC(=O)[C@H](C(C)C)NC(=O)[C@H](C(C)C)NC(=O)[C@H](Cc2c[nH]c3cnccc23)NC(=O)[C@H](Cc2ccccc2)NC(=O)CSC[C@@H](C(=O)NCC(N)=O)NC(=O)[C@H](C(C)C)NC(=O)[C@H](Cc2c[nH]cn2)NC(=O)[C@H](Cc2ccc(O)cc2)NC(=O)[C@H](Cc2cccc3ccccc23)NC1=O` [TGFb1_004] ({CH2CO}-F[Trp(6-aza)]VVNVYDD[Gly(NCH2CH2Ph)]V[1Nal]YHVCG-NH2; thioether N-16), the inhibition at 75 pM was found to be 0%, the inhibition at 0.00075 µM is 0.9%, the inhibition at 0.0075 µM came out at 70.1% and the inhibition at 0.075 µM came out at 94.9%.

Take `CC(C)[C@@H]1NC(=O)CN(CCc2ccccc2)C(=O)[C@H](CC(=O)O)NC(=O)[C@H](CC(=O)O)NC(=O)[C@H](Cc2ccc(O)cc2)NC(=O)[C@H](C(C)C)NC(=O)[C@H](CC(N)=O)NC(=O)[C@H](C(C)C)NC(=O)[C@H](C(C)C)NC(=O)[C@H](Cc2c[nH]c3ccccc23)NC(=O)[C@H](Cc2ccccc2)NC(=O)CSC[C@@H](C(=O)NCC(N)=O)NC(=O)[C@H](C(C)C)NC(=O)[C@H](Cc2c[nH]cn2)NC(=O)[C@H](Cc2ccc(O)cc2)NC(=O)[C@H](Cc2cccc3ccccc23)NC1=O` [TGFb1_003] ({CH2CO}-FWVVNVYDD[Gly(NCH2CH2Ph)]V[1Nal]YHVCG-NH2; thioether N-16): the inhibition at 75 pM came out at 1.6%, the inhibition at 0.00075 µM was found to be 65.2%, the inhibition at 0.0075 µM was 97.3% and the inhibition at 0.075 µM worked out at 98.8%.

For the molecule `CC(C)[C@@H]1NC(=O)CN(CCc2ccccc2)C(=O)[C@H](CC(=O)O)NC(=O)[C@H](CC(=O)O)NC(=O)[C@H](Cc2ccncc2)NC(=O)[C@H](C(C)C)NC(=O)[C@H](CC(N)=O)NC(=O)[C@H](CCCCNC(=O)N(C)C[C@H](O)[C@@H](O)[C@H](O)[C@H](O)CO)NC(=O)[C@H](C(C)C)NC(=O)[C@H](Cc2cccc3ccccc23)NC(=O)[C@H](Cc2ccccc2)NC(=O)CSC[C@@H](C(=O)NCC(N)=O)NC(=O)[C@H](C(C)C)NC(=O)[C@H](Cc2c[nH]cn2)NC(=O)[C@H](Cc2ccc(O)cc2)NC(=O)[C@H](Cc2cccc3ccccc23)NC1=O` [TGFb1_014] ({CH2CO}-F[1Nal]VK([CO-Meglumine])NV[4Pal]DD[Gly(NCH2CH2Ph)]V[1Nal]YHVCG-NH2; thioether N-16), the inhibition at 75 pM is 0%, the inhibition at 0.00075 µM was 64.8%, the inhibition at 0.0075 µM was determined as 97.2% and the inhibition at 0.075 µM stood at 98.8%.
